Results from article PMC5800941 (Biochemistry, 2017).
Entries after “also recorded” stand apart in the source; their conditions may differ.

Columns and labels:
CYP3A4 = CYP3A4 (Homo sapiens, UniProt P08684, S18F); test: Substrate binding to CYP3A4 in Nanodiscs: UV-Vis spectral titration; conditions: human, recombinant CYP3A4 in POPC Nanodiscs
CYP3A4 in POPC Nanodiscs [1] = target: T1, CYP3A4 in POPC Nanodiscs (Homo sapiens, UniProt P08684, S18F); test: Product formation; assay type: biochemical; conditions: binding intermediate with 1 substrate molecule bound; 37 C, pH 7.4
CYP3A4 in POPC Nanodiscs [2] = target: T1, CYP3A4 in POPC Nanodiscs; assay type: biochemical; conditions: mixture of ARVL and DND at constant molar ratio 2.9:1; one of each substrate bound
CYP3A4 in POPC Nanodiscs [3] = target: T1, CYP3A4 in POPC Nanodiscs; test: Substrate binding to CYP3A4 in Nanodiscs: UV-Vis spectral titration; conditions: for Fe^3+ Spin shift (fraction of high spin): 37 C

| Kd (CYP3A4) [µM] | Product formation rate (CYP3A4 in POPC Nanodiscs [1]) | Kd (CYP3A4 in POPC Nanodiscs [3]) [µM] | Fe^3+ Spin shift (fraction of high spin) (CYP3A4 in POPC Nanodiscs [3]; binding intermediate with 1 substrate molecule bound) | Fe^3+ Spin shift (fraction of high spin) (CYP3A4 in POPC Nanodiscs [3]; binding intermediate with 2 substrate molecules bound) | SMILES | Rate of metabolism from the mixed intermediate (CYP3A4 in POPC Nanodiscs [2]) |
| --- | --- | --- | --- | --- | --- | --- |
| 3.6 | 2.5 [1.6 – 3.4] min^−1 | – | – | – | CCCCc1oc2ccc(NS(C)(=O)=O)cc2c1C(=O)c1ccc(OCCCN(CCCC)CCCC)cc1 [DND, dronedarone] | No product of DND metabolism was detected; also recorded: completely inhibited |
| 22 | 13 [9.6 – 14.7] min^−1 | 1 | 22 [16 – 26] % | 62 [56 – 72] % | CC(C)c1c(C(=O)Nc2ccccc2)c(-c2ccccc2)c(-c2ccc(F)cc2)n1CC[C@@H]1C[C@@H](O)CC(=O)O1 [ARVL, atorvastatin lactone] | 31 min⁻¹ |
